# From PMC549409 (Nucleic Acids Research, 2005)
# Biological target: Has1p (Saccharomyces cerevisiae, UniProt Q03532)
# Test: malachite green ATPase assay, ADP competition
# Assay type: biochemical
# Settings: 1 mM ADP with 1 mM ATP; total yeast RNA; pH 6.5; 2 mM MgCl2; 30°C; data not shown
# Has1p, sequence (Q03532 whole entry): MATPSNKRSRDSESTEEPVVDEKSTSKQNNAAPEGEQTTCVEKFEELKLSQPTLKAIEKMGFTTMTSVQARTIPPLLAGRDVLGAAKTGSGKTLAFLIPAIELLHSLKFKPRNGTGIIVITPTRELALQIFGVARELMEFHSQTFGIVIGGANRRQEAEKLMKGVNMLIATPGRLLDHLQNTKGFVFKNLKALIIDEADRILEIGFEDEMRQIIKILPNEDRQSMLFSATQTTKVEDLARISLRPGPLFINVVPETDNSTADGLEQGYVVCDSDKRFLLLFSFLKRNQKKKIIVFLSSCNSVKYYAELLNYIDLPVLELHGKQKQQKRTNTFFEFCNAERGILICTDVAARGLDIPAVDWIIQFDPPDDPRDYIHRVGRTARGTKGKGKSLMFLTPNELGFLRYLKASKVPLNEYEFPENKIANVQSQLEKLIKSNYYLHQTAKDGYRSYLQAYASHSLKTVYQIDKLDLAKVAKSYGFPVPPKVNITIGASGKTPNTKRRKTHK
smiles,measurement,value
Nc1ncnc2c1ncn2[C@@H]1O[C@H](COP(=O)(O)OP(=O)(O)O)[C@@H](O)[C@H]1O [ADP],fold reduction of ATPase activity at 1 mM ADP,5 fold
